Source: patent US20130303575A1, “ADMINISTRATION OF AN INHIBITOR OF HDAC” (priority 2007, published 2013)
“Also recorded” adds a separate entry of the source.

How the values were obtained:
Assay type in all cases: in vivo, human
acetylated histone H3 = test: Immunocytochemical analysis of acetylated histone H3 in PBMCs (Example 2)
Description: Louis, Mo.) for 10 minutes at room temperature, rinsed quickly with water, air-dried, mounted using SlowFade (Molecular Probes), and imaged using a Zeiss Axiophot microscope interfaced with a CCD camera (Optronics Engineering, Goleta, Calif.). Positive controls were prepared by exposing healthy donor PBMCs to SNDX-275 in vitro. Buffy coats, provided anonymously as a byproduct of whole-blood donations from paid, healthy volunteer donors through an international review board-approved protocol, were centrifuged on Ficoll-Paque Plus. […] Cells were processed for histone hyperacetylation in the same manner as patient samples. Images of PBMCs stained for acetylated histone H3 were imported into the Openlab image analysis program (Improvision, Coventry, United Kingdom) and histone acetylation levels were assessed using the Openlab quantification software.

[1] = test system: refractory solid tumors or lymphomas; test: Tumor response by Response Evaluation Criteria on Solid Tumors (Example 1)
Description: Tumor response was assessed every 6 weeks on the biweekly schedule (Schedule A) and every 8 weeks on the twice-weekly (Schedule B) and weekly (Schedule C) schedules, using appropriate imaging studies. Tumor responses were defined by the Response Evaluation Criteria on Solid Tumors.

[2] = test system: histone H3, H4 and protein acetylation; test: Histone H3, H4 and protein acetylation, p21 and caspase-3 in PBMCs and BMMCs (Example 3)
Description: Serial marrow and/or peripheral blood cells were collected at weekly intervals to examine PAMC-induced changes in histone acetylation.
Changes in histone H3, H4 and protein acetylation (immunocytochemistry, multiparameter flow cytometry and western blot analysis.) Immunocytochemical analysis of histone H3 was performed on bone marrow mononuclear cells (BMMCs) as described previously. The multiparameter flow cytometric analysis of protein acetylation versus caspase-3 activation was performed on serial BM aspirates using monoclonal anti-acetylated lysine antibody (Cell Signaling Technology, Beverly, Mass.) followed by FITC-conjugated goat anti-mouse antibody (Caltag Laboratories, Burlingame, Calif.) and polyclonal PE-conjugated anti-caspase-3, active form antibody (BD Pharmingen, Sand Diego, Calif.). The analysis of protein acetylation versus p21 expression or CD 34 expression was performed using polyclonal anti-acetylated lysine antibody (Cell Signaling Technology) versus monoclonal anti-p21 antibody (BD Transduction Laboratories, San Jose, Calif.) or monoclonal anti-CD34 antibody (BD Pharmingen). Primary antibodies were detected using PE-conjugated goat anti-mouse and FITC-conjugated goat anti-rabbit antibodies (Caltag Laboratories). For staining, BMMCs were isolated using Ficoll-Paque Plus (Amersham Biosciences, Piscataway, N.J.) fixed in 0.4% paraformaldehyde, permeabilized with 0.4% Triton X-100, incubated with primary antibodies for 1 hour at room temperature, washed, incubated with secondary antibodies for 1 hour, washed and analyzed on a FACSCalibur flow cytometer (Becton Dickinson, San Jose, Calif.) using CellQuest software for acquisition and FloJo software for analysis.
For western blot analysis of histone acetylation, PBMCs and BMMCs were isolated using Ficoll-Paque Plus (Amersham Biosciences). Histones from the cells were prepared as follows: Cells were washed in 2 ml HBSS and disrupted by a 1 mL ice-cold lysis buffer A (10 mM Tris pH 7.6, 5 mM butyric acid, 1% Triton X-100, 1 mM MgCl2, and 1 mM PMSF). Nuclei were collected by centrifugation at 14,000 rpm for 15 min. The pellet was resuspended once with 250 μL ice-cold lysis buffer B (10 mM Tris pH 7.6, 0.25 M Sucrose, 3 mM CaCl2 and 5 mM butyric acid). Sulfuric acid was added to a concentration of 0.4 N and the tubes were incubated at 4° C. overnight. Debris was pelleted by centrifugation, and the supernatant was collected. Histones were precipitated by addition of 10 volumes of acetone and incubation at −20° C. overnight. Pellets were collected by centrifugation, briefly dried under vacuum and resuspended with dH2O. The total protein content was determined by a bicinchoninic acid assay kit (Pierce, Rockford, Ill.). The proteins 10-30 μg were separated by 15% SDS PAGE and visualized using the antibodies for acetyl-histone H3, acetyl-histone H4, and histone H2A, all from Upstate Biotechnologies (Lake Placid, N.Y.). The immunoreactive proteins were detected using ECL western blotting analysis system (Amersham Biosciences). Radiographic films of histone acetylation were scanned and digitized (UN-SCAN-IT), Silk Scientific, UT).

advanced acute leukemias = test: Clinical outcome and biologic effects in adults with advanced acute leukemias (Example 3)
Description: To assess response to therapy, a BM aspiration was performed weekly for 4 weeks during the first cycle, at the end of each subsequent cycle, or at any time leukemia regrowth was suspected. Complete response (CR) required a normal BM aspirate with absence of identifiable leukemia, absolute neutrophils count (ANC) of 1×10^9/L or higher, platelet count of 100×10^9/L or higher, and absence of blasts in peripheral blood (PB). […] Progressive disease (PD) was defined as >50% increase in marrow or PB blasts from baseline or development of extramedullary leukemia.

Nc1ccccc1NC(=O)c1ccc(CNC(=O)OCc2cccnc2)cc1 [SNDX-275, N-(2-aminophenyl) 4-[N-(pyrid-3-yl)methyloxycarbonylaminomethyl]benzamide]
histone H3 acetylation in peripheral-blood mononuclear-cells (acetylated histone H3; apparent at all dose levels, immunofluoresence analysis): Increased histone H3 acetylation
histone H3 and H4 acetylation (HDAC inhibition) (acetylated histone H3; daily schedule patients): HDAC inhibition occurred after one dose
patients with stable disease ([1]; all schedules): 7
patients with partial response ([1]; melanoma, Schedule A): One
time on SNDX-275 of the patient with partial response ([1]; one melanoma patient): ≥ 22 months
duration of stable disease ([1]; one patient with Ewing's sarcoma, Schedule A): ≥ 60 weeks
duration of stable disease ([1]; one patient with melanoma, Schedule B): ≥ 20 weeks
duration of stable disease ([1]; one patient with rectal carcinoma, Schedule A): ≥ 38 weeks
histone H3 and H4 acetylation by western blotting ([2]; PBMCs and BMMCs, 8 patients at DL 4 and 1 patient at DL 5): increase in histone H3 and H4 acetylation
protein and H3/H4 acetylation, p21 expression, caspase-3 activation ([2]; bone marrow mononuclear cells): increase in protein and H3/H4 acetylation, p21 expression, and caspase-3 activation
specimens with caspase-3 activation ([2]; flow cytometric analysis): 67%
time at which increase in histone H3 and H4 acetylation was evident ([2]; following SNDX-275 treatment, 4 patients with early PB specimens): 8 to 12 h
persistence of histone acetylation following last SNDX-275 administration ([2]; in vivo): 2-3 weeks
histone H3 acetylation by immunocytochemistry ([2]; lowest dose level): increase in histone H3 acetylation
CR or PR by standard criteria (advanced acute leukemias; 34 patients evaluable for response): No patients achieved CR or PR
patients with a 50% reduction in WBC counts (advanced acute leukemias; Fifteen patients): 38.5%
Type of Response (advanced acute leukemias; patient 2, 4 mg/m^2 × 2/4 weeks, 4 cycles, bone marrow blast response): Bone marrow PR (>50% → 12% blasts, cycle 1)
Type of Response (advanced acute leukemias; patient 2, 4 mg/m^2 × 2/4 weeks, 4 cycles, myeloid differentiation by ANC): Differentiation in myeloid lineage (ANC 504/μL →
ANCmax (advanced acute leukemias; patient 2, 4 mg/m^2 × 2/4 weeks, cycle 1, from ANC 504/μL): ANCmax 1410/μL, cycle 1)
Type of Response (advanced acute leukemias; patient 5, 4 mg/m^2 × 2/4 weeks (cycle 1), 6 mg/m^2 × 2/4 weeks (cycle 2 and 3), 3 cycles): Stable disease
Type of Response (advanced acute leukemias; patient 11, 8 mg/m^2 × 2/4 weeks, 1 cycle): Decreased transfusion requirements
Type of Response (advanced acute leukemias; patient 14, 8 mg/m^2 × 4/6 weeks, 1 cycle): Resolution of bone pain
Type of Response (advanced acute leukemias; patient 15, 8 mg/m^2 × 4/6 weeks, 1.75 cycles, bone marrow blast response): Bone marrow PR (35% → 14% blasts, cycle 1)
Type of Response (advanced acute leukemias; patient 15, 8 mg/m^2 × 4/6 weeks, 1.75 cycles, myeloid differentiation by ANC): Differentiation in myeloid lineage (ANC 288/μL →
ANCmax (advanced acute leukemias; patient 15, 8 mg/m^2 × 4/6 weeks, cycle 1, from ANC 288/μL): 2052 µL⁻¹
ANCmax (advanced acute leukemias; patient 15, 8 mg/m^2 × 4/6 weeks, cycle 2): 5546 µL⁻¹
Type of Response (advanced acute leukemias; patient 18, 8 mg/m^2 × 4/6 weeks, 1.25 cycles): Differentiation in myeloid lineage (ANC 124/μL →
ANCmax (advanced acute leukemias; patient 18, 8 mg/m^2 × 4/6 weeks, cycle 1, from ANC 124/μL): ANCmax 680/μL, cycle 1)
Type of Response (advanced acute leukemias; patient 20, 8 mg/m^2 × 4/6 weeks, 1 cycle): Decreased transfusion requirements
Type of Response (advanced acute leukemias; patient 24, 8 mg/m^2 × 4/6 weeks, 4.75 cycles, bone marrow blast response): Bone marrow PR (30% → 20% blasts, cycle 1)
Type of Response (advanced acute leukemias; patient 24, 8 mg/m^2 × 4/6 weeks, 4.75 cycles, myeloid differentiation by ANC): Differentiation in myeloid lineage (ANC 520/μL →
ANCmax (advanced acute leukemias; patient 24, 8 mg/m^2 × 4/6 weeks, cycle 1, from ANC 520/μL): 3637 µL⁻¹
ANCmax (advanced acute leukemias; patient 24, 8 mg/m^2 × 4/6 weeks, cycle 3): 4456 µL⁻¹
Type of Response (advanced acute leukemias; patient 27, 8 mg/m^2 × 4/6 weeks, 5 cycles): Stable disease; also recorded: Peripheral blood 21% → 0% blasts
Type of Response (advanced acute leukemias; patient 33, 10 mg/m^2 × 4/6 weeks, 2 cycles): Resolution of extramedullary chloroma
Type of Response (advanced acute leukemias; patient 34, 10 mg/m^2 × 4/6 weeks, 2 cycles, bone marrow blast response): Bone marrow CR (54% → 3% blasts, cycle 1)
Type of Response (advanced acute leukemias; patient 34, 10 mg/m^2 × 4/6 weeks, 2 cycles, myeloid differentiation by ANC): Differentiation in myeloid lineage (ANC 103/μL →
ANCmax (advanced acute leukemias; patient 34, 10 mg/m^2 × 4/6 weeks, cycle 1, from ANC 103/μL): 854 µL⁻¹
ANCmax (advanced acute leukemias; patient 34, 10 mg/m^2 × 4/6 weeks, cycle 2): 2929 µL⁻¹
median time to 50% reduction in WBC counts (advanced acute leukemias; range 3-28): 6 days
